Data taken from US8217071B2, “Use of inhibitors of the degradation of p27, in particular Argyrin and derivatives thereof, for the treatment of proliferative diseases” (Helmholtz Zentrum für Infektionsforschung GmbH, priority 2007, dated 2012).
Entries after “also recorded” stand apart in the source; their conditions may differ. Numbered stars: 1 amine (or outer) side, 2 acyl side, 3 side chain; on linkers, the order of the positions; unused ones are H or OH. Square brackets hold non-standard residues; d marks the D form. Peptide text beside a SMILES is read from it. dAla(ψthiazole) = C[C@@H](N[*:1])c1nc(C(=O)[*:2])cs1; Trp(4-OMe) = COc1cccc2[nH]cc(C[C@H](N)C(=O)O)c12; Dha = C=C(N)C(=O)O; Sar = CNCC(=O)O

Legend:
[1] = test system: CD31 positive endothelial cells in tumour tissues (SW480 or HCT116); experiment: Microvessel density (CD31) in tumour tissue after single injection; type: in vivo, mouse
Method: This phenotype is often observed with drugs which interfere with blood vessel formation or compounds which directly damage existing tumour vessels. […] This reduction in tumour vasculature was paralleled by an induction of p27^kip1 expression in the CD31 positive endothelial cells. (FIG. 7A). To understand this phenotype in more detail the inventors analyzed primary tumour material by electronic microscopy. As early as 90 minutes after injection the inventors observed swelling of endothelial cell which was followed by a loss of basal membrane attachment and cell-cell contacts (FIG. 4D) in the tumour vasculature. As a result of the apparent loss of cell and basal membrane attachment after Argyrin A treatment many of the examined tumour blood vessels were occluded with endothelial cells or erythrocytes. The destruction of the tumour core which the inventors observed after Argyrin A treatment might therefore be a result of thrombotic occlusion of the affected blood vessels. In contrast the bortezomib induced reduction in CD31 positive cells correlated with the appearance of necrotic endothelial cells (FIG. 4D).
Treatment with Argyrin A or bortezomib was started when these tumours reached a volume of 200 mm3. […] (n=8 Argyrin A, n=8 Bortezomib, n=6 PBS/EtOH) b) The pictures show the macroscopic appearance of a xenotransplant tumour after 10 days of treatment with Argyrin A. Note the large necrotic centre of the explanted tumour. c) After a single injection of Argyrin A (0.15 mg/kg bodyweight) or bortezomib (1.0 mg/kg bodyweight) tumours were explanted at the indicated time points and blood vessels in the tumour tissue were co-stained for CD31 and p27. […] Note the swelling of the endothelial cell (“E”) and the occlusion of the lumen (“L”) by erythrocytes after 90 minutes of Argyrin A treatment. The arrow marks the detachment of endothelial cells after 48 h of Argyrin A treatment. […] Tube length (f) and blood vessel like […] structures were determined using photographs of HUVEC cultures. The micrographs show representative examples of HUVEC cultures under the indicated conditions.
Immunohistochemical staining of mouse tumour tissue, western Blotting and immunofluorescence experiments were done as previously described (Timmerbeul, I. et al. Testing the importance of p27 degradation by the SCFskp2 pathway in murine models of lung and colon cancer. Proc Natl Acad Sci USA 103, 14009-14 (2006). Kossatz, U. et al. C-terminal phosphorylation controls the stability and function of p27^kip1. Embo J 25, 5159-70 (2006).). […]

[2] = Body weight and tolerability of treated tumour bearing mice; type: in vivo
p53, p21, BAX and NfκB = experiment: Accumulation of proteasome substrates by western blotting; type: cell-based, human; conditions: SW480 and HCT116 cell lines
Method: The expression levels of p27^kip1 were determined at the indicated timepoints by western blotting and normalized against actin expression which was used as an internal control.
Immunohistochemical staining of mouse tumour tissue, western Blotting and immunofluorescence experiments were done as previously described (Timmerbeul, I. et al. Testing the importance of p27 degradation by the SCFskp2 pathway in murine models of lung and colon cancer. Proc Natl Acad Sci USA 103, 14009-14 (2006). Kossatz, U. et al. C-terminal phosphorylation controls the stability and function of p27^kip1. Embo J 25, 5159-70 (2006).). The following antibodies were used: p27 (Cat. No. K25020-150; Transduction Labs), p21 (N20; Santa Cruz), p53 (FL-393; Santa Cruz), NfKB (C-20; Santa Cruz), Bax (P-19; Santa Cruz), Alexa fluor 488 (# A11001; Invitrogen), 20S-proteasome subunit beta 2 (Z) (PW9300; Bio-mol, for human cells), 20S-proteasome subunit beta 2 (Z) (PW8145; BIO TREND, for mouse cells); 20S proteasome subunit beta 1(Y) (PW8140; BIO TREND), 20S proteasome subunit beta 5 (PW8895; BIO TREND); PECAM Antibody clone MEC 13.3 (#550274; BD Pharmingen).

[3] = test system: SW-480 (colon cancer cell line); experiment: MTT-test proliferation of SW-480; type: cell-based, human; conditions: half-maximal inhibition of proliferation
Method: MTT assays were done as previously described (Sasse, F. et al. Argyrins, immunosuppressive cyclic peptides from myxobacteria. I. Production, isolation, physico-chemical and biological properties. J Antibiot (Tokyo) 55, 543-51 (2002)). TUNEL staining of tissue sections was performed on 10 micrometer sections which were deparafinised and treated as recommended by the manufacturer. (In Situ Cell Death Detection Kit, Fluorescein; ROCHE, Cat #11 684 795 910). Flow cytometric analysis of cultured cells was done using a Becton Dickinson fluorescence cytometer as previously described (Malek, N. P. et al. A mouse knock-in model exposes sequential proteolytic pathways that regulate p27^Kip1 in G1 and S phase. Nature 413, 323-7 (2001)). Analysis of the distribution of cells in the cell cycle and the sub-G1 fraction was done using Cell Quest software. A histone-associated-DNA-fragments ELISA was used to determine the number of apoptotic cells according to manufacturers instructions (Roche #11 774425001).

HeLa cells = experiment: Apoptosis in HeLa cells with p27^kip1 specific siRNA; type: cell-based, human; conditions: 24 or 48 hours
Source text: Next the inventors tested whether the stabilization of p27 was indeed required for the apoptosis inducing function of Argyrin A or was merely a consequence of proteasome inhibition. For this the inventors treated immortalized mouse embryonic fibroblasts from p27^kip1 wildtype or knockout mice with Argyrin A or the proteasome inhibitor bortezomib and assayed cell cycle distribution and apoptosis by flow cytometry. […] These differences in sensitivity in response to Argyrin A treatment were not due to differences in the accumulation of other proteasomal substrates in p27 wildtype and knockout cells as p53 and p21 levels increased in both cell lines in response to Argyrin A (FIG. 6B). To extend this observation to human cancer cells the inventors reduced the levels of p27^kip1 in HeLa cells using p27^kip1 specific siRNA.
The results shown are the average numbers for six independent experiments. b+d) Wildtype (b) and p27 knockout (d) MEF were treated with Argyrin A or transfected with siRNAs specific for the β1, β2 or β5 subunit of the proteasome for 24 hours. The graphs show the remaining catalytic activity of the different proteasome subunits after Argyrin A or siRNA treatment compared to an untreated control (n=3). […]

Structure (SMILES)	number of CD31 positive endothelial cells ([1]; single injection)	discomfort, weight loss, disease / tolerability [2]	levels of proteasome substrates p53, p21, BAX and NfκB (p53, p21, BAX and NfκB)	IC-50 SW-480 [3]	apoptosis inducing function in HeLa cells treated with p27siRNA (HeLa cells)	CD31 positive cells remaining ([1]; 72 hours after injection)	start of reduction of CD31 positive endothelial cells after injection ([1]; single injection) [min]
CC(C)C[C@H](NC(=O)[C@H](Cc1ccccc1)NC(=O)c1cnccn1)B(O)O [bortezomib, reference compound]	reduction	–	–	–	–	–	–
C=C1NC(=O)[C@@H](C)NC(=O)CNC(=O)[C@H](Cc2c[nH]c3cccc(OC)c23)NC(=O)[C@H](Cc2c[nH]c3ccccc23)NC(=O)c2csc(n2)[C@@H](C)NC(=O)CN(C)C1=O [Argyrin A] (cyclo(W[Trp(4-OMe)]G[dA][Dha][Sar][dAla(ψthiazole)]))	significant reduction	very well tolerated; also recorded: did not observe any signs of discomfort, weight loss	accumulated	Ca. 0.05 μg/ml	completely blocked	about 10%	≥ 90
